Measurements from patent US20240132498A1, “CRYSTALLINE FORMS OF 5-(3,4-DIFLUOROBENZYL)-8-((1R,4R)-4-METHYLCYCLOHEXYL)-6,9-DIOXO-2,5,8-TRIAZASPIRO[3.5]NONANE-2-CARBALDEHYDE” (Cytokinetics, Incorporated, priority 2022, published 2024).

Assay: Competitive slurry experiments between Form I and Form II
Type: physicochemical
Details: competitive slurries of a mechanical mixture of Form I and Form II, range of temperatures (5-50)
Excerpt: The results of the competitive slurry experiments are provided below in Table 6.

relative thermodynamic stability of Form I and Form II: most stable form
SMILES: C[C@H]1CC[C@H](N2CC(=O)N(Cc3ccc(F)c(F)c3)C3(CN(C=O)C3)C2=O)CC1 [Form II, 5-(3,4-difluorobenzyl)-8-((1r,4r)-4-methylcyclohexyl)-6,9-dioxo-2,5,8-triazaspiro[3.5]nonane-2-carbaldehyde]
